Assay results as given in patent US12371454B2, “Cyclic peptide compound having Kras inhibitory action” (priority 2019, dated 2025).
Starred links: 1 amine or outer side, 2 acyl side, 3 side chain; linkers in the order of their positions; H or OH if unused. Positions of bridges follow the written chain, without caps; N, C: chain ends. Non-standard residues stand in square brackets, D forms with d. Residues, ends and D or L forms follow the SMILES beside them. *: point of attachment. NMeAbu(3,3-F2-piperidino) = CN[C@@H](CCN1CCCC(F)(F)C1)C(=O)O; hPhe(3-Cl-4-CF3) = N[C@@H](CCc1ccc(C(F)(F)F)c(Cl)c1)C(=O)O; NMeDab(N,N-(CH2CF2CH2)) = CN[C@@H](CCN1CC(F)(F)C1)C(=O)O; NMePhe(4-CF3) = CN[C@@H](Cc1ccc(C(F)(F)F)cc1)C(=O)O; hPhe(4-CF3) = N[C@@H](CCc1ccc(C(F)(F)F)cc1)C(=O)O; Phe(2-OCF3) = N[C@@H](Cc1ccccc1OC(F)(F)F)C(=O)O; Phe(2-CF3) = N[C@@H](Cc1ccccc1C(F)(F)F)C(=O)O; NMeAbu(4,4,4-F3) = CN[C@@H](CC(F)(F)F)C(=O)O; NMePhe(4-Cl) = CN[C@@H](Cc1ccc(Cl)cc1)C(=O)O; NMePhe(4-Me) = CN[C@@H](Cc1ccc(C)cc1)C(=O)O; Abu(4,4,4-F3) = N[C@@H](CC(F)(F)F)C(=O)O; NMeAla(cPent) = CN[C@@H](CC1CCCC1)C(=O)O; NMeGly(cPent) = CN[C@H](C(=O)O)C1CCCC1; Phe(3-I) = N[C@@H](Cc1cccc(I)c1)C(=O)O; X10 = CC(C)=CC[C@H](N[*:1])C(=O)[*:2]; NMeCha = CN[C@@H](CC1CCCCC1)C(=O)O; Azetidine(3,3-F2) = FC1(F)CN(*)C1; Hyp = O=C(O)[C@@H]1C[C@@H](O)CN1; NMeChg = CN[C@H](C(=O)O)C1CCCCC1; NMeF = CN[C@@H](Cc1ccccc1)C(=O)O; NMeI = CC[C@H](C)[C@H](NC)C(=O)O; NMeD = CN[C@@H](CC(=O)O)C(=O)O; NMeL = CN[C@@H](CC(C)C)C(=O)O; NMeNva = CCC[C@H](NC)C(=O)O; NMeV = CN[C@H](C(=O)O)C(C)C; d(β3hA) = C[C@@H](N)CC(=O)O; Pip = O=C(O)[C@@H]1CCCCN1; NMeA = CN[C@@H](C)C(=O)O; NMeAib = CNC(C)(C)C(=O)O; Piperidide = C1CCN(*)CC1; Pyrrolidide = C1CCN(*)C1; dNMeA = CN[C@H](C)C(=O)O; Ac5c = NC1(C(=O)O)CCCC1; Aze = O=C(O)[C@@H]1CCN1; X1 = FC1(F)CN(*)CC1(F)F; Ac3c = NC1(C(=O)O)CC1; Isopentyl = CC(C)CC*; NPrGly = CCCNCC(=O)O; Sar = CNCC(=O)O

target: T1, Kras and SOS1 (biotin-tagged human Kras loaded with GDP, His-tagged human SOS1) (Homo sapiens, UniProt P01116, G12D); experiment: Protein-protein interaction inhibition between Kras and SOS1 (KrasGl2D-SOS PPI) using AlphaScreen; format: binding; details: AlphaScreen; biotin-tagged human Kras loaded with GDP, His-tagged human SOS1; read-out: KRAS G12D-SOS PPI IC50
T1 construct: made in house; host or cells: E. coli (stated for Kras only)
T1 sequence (P01116 1-188 isoform P01116-2 G12D): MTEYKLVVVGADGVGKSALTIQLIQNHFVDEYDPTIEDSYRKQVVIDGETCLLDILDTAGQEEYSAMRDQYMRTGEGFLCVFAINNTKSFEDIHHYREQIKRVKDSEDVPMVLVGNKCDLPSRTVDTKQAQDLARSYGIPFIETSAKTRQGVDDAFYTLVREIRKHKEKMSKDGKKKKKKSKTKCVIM
In short: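 AlphaScreen format: Ni donor beads capture His-SOS1, streptavidin acceptor beads capture biotinylated Kras (E. coli-expressed, GDP-loaded post-purification). Excite 680 nm, read 520-620 nm.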

SMILES | IC50 [nM]
CC[C@H](C)[C@@H]1NC(=O)[C@H](C)N(C)C(=O)C[C@@H](C(=O)N2CCCCC2)N(C)C(=O)[C@H](C(C)C)N(C)C(=O)C2(CCCC2)NC(=O)[C@@H]2CCCN2C(=O)[C@H](CCc2ccc(C(F)(F)F)c(Cl)c2)NC(=O)[C@@H](C)N(C)C(=O)[C@H](CC2CCCCC2)N(C)C(=O)[C@@H]2CCN2C(=O)[C@H](C)N(C)C1=O [Compound 1103] ([NMeA]I[NMeA][Aze][NMeCha][dNMeA][hPhe(3-Cl-4-CF3)]P[Ac5c][NMeV][NMeD]-Piperidide; lactam N-11) | 16
CC[C@H](C)[C@@H]1NC(=O)[C@H](C)N(C)C(=O)C[C@@H](C(=O)N2CCCCC2)N(C)C(=O)[C@H](C(C)C)N(C)C(=O)[C@H](CC(F)(F)F)NC(=O)[C@H](CCN2CC(F)(F)C2)N(C)C(=O)[C@H](CCc2ccc(C(F)(F)F)c(Cl)c2)NC(=O)CN(C)C(=O)[C@H](CC2CCCCC2)N(C)C(=O)CN(C)C(=O)CN(C)C1=O [Compound 1104] ([NMeA]I[Sar][Sar][NMeCha][Sar][hPhe(3-Cl-4-CF3)][NMeDab(N,N-(CH2CF2CH2))][Abu(4,4,4-F3)][NMeV][NMeD]-Piperidide; lactam N-11) | 11
CC[C@H](C)[C@@H]1NC(=O)[C@H](CC(C)C)N(C)C(=O)C[C@@H](C(=O)N2CCCCC2)N(C)C(=O)[C@H](C(C)C)NC(=O)C2(CCCC2)NC(=O)[C@@H]2CCCN2C(=O)[C@H](CCc2ccc(C(F)(F)F)c(Cl)c2)NC(=O)CN(C)C(=O)[C@H](CC2CCCCC2)N(C)C(=O)[C@@H]2CCN2C(=O)[C@H](C)N(C)C1=O [Compound 1106] ([NMeL]I[NMeA][Aze][NMeCha][Sar][hPhe(3-Cl-4-CF3)]P[Ac5c]V[NMeD]-Piperidide; lactam N-11) | 35
CC[C@H](C)[C@@H]1NC(=O)[C@H](CC(C)C)N(C)C(=O)C[C@@H](C(=O)N(C)C)N(C)C(=O)[C@H](C2CCCC2)N(C)C(=O)[C@H](COC)NC(=O)[C@H](CC(=O)N2CC(F)(F)C2)N(C)C(=O)[C@H](CCc2ccc(C(F)(F)F)c(Cl)c2)NC(=O)CN(C)C(=O)[C@H](CC2CCCCC2)N(C)C(=O)[C@@H]2CCN2C(=O)[C@H](C)N(C)C1=O [Compound 1108] ([NMeL]I[NMeA][Aze][NMeCha][Sar][hPhe(3-Cl-4-CF3)][NMeD](Azetidine(3,3-F2))S(Me)[NMeGly(cPent)][NMeD]-NMe2; lactam N-11) | 11
CC[C@H](C)[C@@H]1NC(=O)[C@@H]2CCCCN2C(=O)C[C@@H](C)NC(=O)[C@H](C(C)C)N(C)C(=O)[C@H](Cc2ccccc2)N(C)C(=O)[C@H](CC(C)C)N(C)C(=O)[C@H](CCc2ccc(C(F)(F)F)cc2)NC(=O)CN(C)C(=O)[C@H](Cc2ccc(Cl)cc2)N(C)C(=O)CN(C)C(=O)CN(C)C1=O [Compound 1110] (cyclo(I[Sar][Sar][NMePhe(4-Cl)][Sar][hPhe(4-CF3)][NMeL][NMeF][NMeV][d(β3hA)][Pip])) | 130
CC[C@H](C)[C@@H]1NC(=O)[C@H](CC(C)C)N(C)C(=O)C[C@@H](C)NC(=O)[C@H](C(C)C)N(C)C(=O)C2(CC2)NC(=O)[C@@H]2CCCN2C(=O)[C@H](CCc2ccc(C(F)(F)F)c(Cl)c2)NC(=O)CN(C)C(=O)[C@H](CC2CCCCC2)N(C)C(=O)CN(C)C(=O)CN(C)C1=O [Compound 1111] (cyclo([Ac3c][NMeV][d(β3hA)][NMeL]I[Sar][Sar][NMeCha][Sar][hPhe(3-Cl-4-CF3)]P)) | 41
CCC[C@H]1C(=O)NC2(CCCC2)C(=O)N(C)[C@@H](C2CCCCC2)C(=O)N(C)[C@H](C(=O)N2CCCCC2)CC(=O)N(C)[C@@H](CC(C)C)C(=O)N[C@@H]([C@@H](C)CC)C(=O)N(C)[C@@H](C)C(=O)N2CC[C@H]2C(=O)N(C)[C@@H](CC2CCCCC2)C(=O)N(C)CC(=O)N[C@@H](CCc2ccc(C(F)(F)F)c(Cl)c2)C(=O)N1C [Compound 1113] ([NMeL]I[NMeA][Aze][NMeCha][Sar][hPhe(3-Cl-4-CF3)][NMeNva][Ac5c][NMeChg][NMeD]-Piperidide; lactam N-11) | 410
CC[C@H](C)[C@@H]1NC(=O)[C@H](C)N(C)C(=O)C[C@@H](C(=O)N2CCCC2)NC(=O)[C@H](CC(C)C)N(C)C(=O)[C@H](Cc2ccccc2)N(C)C(=O)[C@H](COCCC(C)C)NC(=O)[C@H](CCc2ccc(C(F)(F)F)cc2)NC(=O)CN(C)C(=O)[C@H](Cc2ccc(Cl)cc2)N(C)C(=O)CN(C)C(=O)CN(C)C1=O [Compound 1119] ([NMeA]I[Sar][Sar][NMePhe(4-Cl)][Sar][hPhe(4-CF3)]S(Isopentyl)[NMeF][NMeL]D-Pyrrolidide; lactam N-11) | 180
CC[C@H](C)[C@@H]1NC(=O)[C@H](C)N(C)C(=O)C[C@@H](C(=O)N2CCCCC2)N(C)C(=O)[C@H](C(C)C)N(C)C(=O)C2(CCCC2)NC(=O)[C@@H]2CCCN2C(=O)[C@H](CCc2ccc(C(F)(F)F)c(Cl)c2)NC(=O)CN(C)C(=O)[C@H](CC2CCCCC2)N(C)C(=O)[C@@H]2CCCN2C(=O)CN(C)C1=O [Compound 1121] ([NMeA]I[Sar]P[NMeCha][Sar][hPhe(3-Cl-4-CF3)]P[Ac5c][NMeV][NMeD]-Piperidide; lactam N-11) | 1.4
CC[C@H](C)[C@@H]1NC(=O)[C@H](CC(C)C)N(C)C(=O)C[C@@H](C(=O)N2CCCCC2)N(C)C(=O)[C@H](CC(C)C)NC(=O)C(C)(C)N(C)C(=O)[C@H](Cc2ccccc2C(F)(F)F)NC(=O)[C@H](Cc2cccc(I)c2)NC(=O)CN(C)C(=O)[C@H](Cc2ccc(C)cc2)N(C)C(=O)CN(C)C(=O)CN(C)C1=O [Compound 1127] ([NMeL]I[Sar][Sar][NMePhe(4-Me)][Sar][Phe(3-I)][Phe(2-CF3)][NMeAib]L[NMeD]-Piperidide; lactam N-11) | 260
CC[C@H](C)[C@@H]1NC(=O)[C@H](CC(C)C)N(C)C(=O)C[C@@H](C(=O)N2CCCCC2)N(C)C(=O)[C@H](CC(C)C)NC(=O)C(C)(C)N(C)C(=O)[C@H](Cc2ccccc2OC(F)(F)F)NC(=O)[C@H](Cc2cccc(I)c2)NC(=O)CN(C)C(=O)[C@H](Cc2ccc(C)cc2)N(C)C(=O)[C@@H]2CCN2C(=O)[C@H](C)N(C)C1=O [Compound 1129] ([NMeL]I[NMeA][Aze][NMePhe(4-Me)][Sar][Phe(3-I)][Phe(2-OCF3)][NMeAib]L[NMeD]-Piperidide; lactam N-11) | 150
CCCN1CC(=O)N(C)[C@@H]([C@@H](C)CC)C(=O)N(C)[C@H](C(=O)N(C)C)CC(=O)N(C)[C@@H](CC(C)C)C(=O)N[C@@H]([C@@H](C)CC)C(=O)N(C)[C@@H](C)C(=O)N2CC[C@H]2C(=O)N(C)[C@@H](Cc2ccc(C)cc2)C(=O)N(C)CC(=O)N[C@@H](CCc2ccc(C(F)(F)F)c(Cl)c2)C(=O)N2CCC[C@H]2C1=O [Compound 1131] ([NMeL]I[NMeA][Aze][NMePhe(4-Me)][Sar][hPhe(3-Cl-4-CF3)]P[NPrGly][NMeI][NMeD]-NMe2; lactam N-11) | 13
CC(C)=CC[C@@H]1NC(=O)[C@H](CC(C)C)N(C)C(=O)C[C@@H](C(=O)N2CCCCC2)N(C)C(=O)[C@H](C2CCCCC2)N(C)C(=O)C2(CCCC2)NC(=O)[C@@H]2CCCN2C(=O)[C@H](CCc2ccc(C(F)(F)F)c(Cl)c2)NC(=O)CN(C)C(=O)[C@H](CC2CCCCC2)N(C)C(=O)CN(C)C(=O)CN(C)C1=O [Compound 1134] ([NMeL][X10][Sar][Sar][NMeCha][Sar][hPhe(3-Cl-4-CF3)]P[Ac5c][NMeChg][NMeD]-Piperidide; lactam N-11) | 6
CC[C@H](C)[C@@H]1NC(=O)[C@H](CC(C)C)N(C)C(=O)C[C@@H](C(=O)N(C)C)N(C)C(=O)[C@H]([C@@H](C)CC)N(C)C(=O)[C@H](C)NC(=O)[C@H](CCN2CCCC(F)(F)C2)N(C)C(=O)[C@H](CCc2ccc(C(F)(F)F)c(Cl)c2)NC(=O)CN(C)C(=O)[C@H](Cc2ccc(C)cc2)N(C)C(=O)[C@@H]2CCN2C(=O)[C@H](C)N(C)C1=O [Compound 1135] ([NMeL]I[NMeA][Aze][NMePhe(4-Me)][Sar][hPhe(3-Cl-4-CF3)][NMeAbu(3,3-F2-piperidino)]A[NMeI][NMeD]-NMe2; lactam N-11) | 5.8
CC[C@H](C)[C@@H]1NC(=O)[C@H](CC(C)C)N(C)C(=O)C[C@@H](C(=O)N2CC(F)(F)C(F)(F)C2)N(C)C(=O)[C@H](C(C)C)N(C)C(=O)C2(CCCC2)NC(=O)[C@@H]2CCCN2C(=O)[C@H](CCc2ccc(C(F)(F)F)c(Cl)c2)NC(=O)CN(C)C(=O)[C@H](CC2CCCCC2)N(C)C(=O)[C@@H]2CCN2C(=O)[C@H](C)N(C)C1=O [Compound 1136] ([NMeL]I[NMeA][Aze][NMeCha][Sar][hPhe(3-Cl-4-CF3)]P[Ac5c][NMeV][NMeD]-X1; lactam N-11) | 70
CCO[C@@H]1C[C@H]2C(=O)NC3(CCCC3)C(=O)N(C)[C@@H](C3CCCCC3)C(=O)N(C)[C@H](C(=O)N3CCCC3)CC(=O)N(C)[C@@H](CC(F)(F)F)C(=O)N[C@@H]([C@@H](C)CC)C(=O)N(C)CC(=O)N(C)CC(=O)N(C)[C@@H](Cc3ccc(C(F)(F)F)cc3)C(=O)N(C)CC(=O)N[C@@H](CCc3ccc(C(F)(F)F)c(Cl)c3)C(=O)N2C1 [Compound 1139] ([NMeAbu(4,4,4-F3)]I[Sar][Sar][NMePhe(4-CF3)][Sar][hPhe(3-Cl-4-CF3)][Hyp](Et)[Ac5c][NMeChg][NMeD]-Pyrrolidide; lactam N-11) | 0.59
CC[C@H](C)[C@@H]1NC(=O)[C@H](CC2CCCC2)N(C)C(=O)C[C@@H](C(=O)N(C)C)N(C)C(=O)[C@H]([C@@H](C)CC)N(C)C(=O)C2(CCCC2)NC(=O)[C@@H]2CCCN2C(=O)[C@H](CCc2ccc(C(F)(F)F)c(Cl)c2)NC(=O)CN(C)C(=O)[C@H](Cc2ccc(C)cc2)N(C)C(=O)[C@@H]2CCN2C(=O)[C@H](C)NC1=O [Compound 1141] ([NMeAla(cPent)]IA[Aze][NMePhe(4-Me)][Sar][hPhe(3-Cl-4-CF3)]P[Ac5c][NMeI][NMeD]-NMe2; lactam N-11) | 0.97
